“Also recorded” adds a separate entry of the source.
What was measured:
[1] = tested on: MC-3T3 cells; test: Gene expression by real-time PCR in MC-3T3 cells (Example 11); assay type: cell-based; conditions: 100 nM
Procedure: MC-3T3 cells were incubated in vehicle or 100 nM synthetic bear or human PTH 1-34 for 3 or 6 hours (n=2 or 4). Total RNA was isolated, and cDNA was generated with reverse transcription. Primers for the bone matrix proteins type I collagen and osteocalcin, the pro-apoptotic protein Bax, the anti-apoptotic protein Bcl-2, and the housekeeping genes Gapdh, β-actin, and cyclophillin were designed using PrimerQuest software (Integrated DNA Technologies, Coralville, Iowa). Real-time PCR was performed using the Mx3000P real-time PCR system (Stratagene, LaJolla, Calif.). All samples were measured in duplicate. Gene expression was determined using the relative standard curve method normalized to the geometric mean of the three housekeeping genes (Gapdh, β-actin, and cyclophillin). Apoptosis-related genes were analyzed as the expression ratio of Bax/Bcl-2, since a decrease in this ratio is associated with decreased apoptosis in vitro.

[2] = tested on: Male Swiss-Webster mice; test: Trabecular bone structure and mineralization in the proximal tibia (micro-computed tomography); assay type: in vivo, mouse; conditions: PTH 1-34 study: 11 wk old mice, 8 weeks, proximal tibia, normalized by body mass
Excerpt: (§1) All handling procedures and experiments were approved by the Michigan Technological University Institutional Animal Care and Use Committees. Male Swiss-Webster mice were obtained from a commercial breeder (Harlan, Indianapolis, Ind.). All animals were maintained on a 12-h light/12-h dark cycle, and were permitted free access to water and food containing 0.95% calcium (Purina Rodent Diet #5001).
(§2) In the first experiment, 11 wk old mice received daily (5 days/week) subcutaneous injections of 2.5 nmol/kg PTH 1-34 (hPTH 1-34 or bbPTH 1-34) or acidic saline vehicle (0.15 M NaCl+0.001 N HCl) for 8 weeks (n=10 mice/group). In the second experiment, 12 wk old mice received daily (5 days/week) subcutaneous injections of 2.5 nmol/kg PTH 1-84 (hPTH 1-84 or bbPTH 1-84) or acidic saline vehicle for 8 weeks (n=10 mice/group). All PTH- and vehicle-treated animals received subcutaneous injections of calcein at a dosage of 10 mg/kg on days 12 and 3 before death to label mineralizing bone surfaces. Twenty-four hours following the last treatment injection, mice were sacrificed by carbon dioxide asphyxiation. Right femurs were fixed in 10% neutral buffered formalin. Left femurs were wrapped in 0.15M saline soaked gauze and stored at −20 deg C. Left tibias were stored in 70% ethanol at 4 deg C.
Trabecular bone architecture and mineralization were evaluated in the left proximal tibial metaphysis (0.7 mm distal to the growth plate) using micro-computed tomography. Tibias from experiment 1 were scanned on a μCT35 scanner (Scanco Medical AG, Basserdorf, Switzerland) at 3.5 μm (high) resolution. Tibias from experiment 2 were scanned on a μCT40 scanner (Scanco Medical AG, Basserdorf, Switzerland) at 7 μm (high) resolution. Bones were scanned in 70% ethanol. Trabecular bone volume fraction (BV/TV, %), trabecular number (Tb.N, mm^−1), trabecular thickness (Tb.Th, m), trabecular separation (Tb.Sp, m), trabecular apparent mineral density (App.Mn.Dn, mgHA/cm^3) and trabecular tissue mineral density (Mat.Mn.Dn, mgHA/cm^3) were computed using the manufacturer's software.
(§3) All bone geometrical, architectural, and mineral properties were normalized by body mass to account for potential variation in animal size (31-33). Trabecular bone properties quantified by micro-computed tomography were compared by ANOVA between vehicle, bear, and human PTH-treated mice within each study (PTH 1-34 or PTH 1-84). The microCT parameters were not directly compared between the PTH 1-34 and PTH 1-84 studies because analyses were conducted on different microCT machines. For all other bone properties, all six experimental groups (from both the PTH 1-34 and PTH 1-84 studies) were compared with ANOVA and Fisher's PLSD. A significance of p<0.05 was used for all comparisons.

[3] = tested on: male mice; conditions: Sakai et al. 1999, cited from earlier work
[4] = tested on: Male Swiss-Webster mice; test: Cortical bone dynamic histomorphometry in the femur (calcein labels); assay type: in vivo, mouse; conditions: femoral midshaft, 2.5 nmol/kg s.c., 8 weeks, SD in parentheses
Excerpt: as §1, §2
Following the bending test, the left femoral diaphyses were ashed in a furnace to determine mineral content (ash fraction). Right femoral diaphyses were embedded in methyl methacrylate and sectioned with a diamond saw to expose the midshaft cross-section. Images of the midshaft cross-sections were captured using a digital camera (Spot Insight QE, Diagnostic Instruments Inc., Sterling Heights, Mich.), and Scion Image analysis software (Scion Corporation, Frederick, Md.) was used to calculate the periosteal area (Ps.Ar), cortical area (Ct.Ar), and endosteal area (Es.Ar) for each sample. Cortical bone thickness (Ct.Th) was calculated in 0.1 mm increments for each anatomical quadrant and for the entire cross-section using image analysis software (Bioquant Osteo, Nashville, Tenn.). Thin sections from the midshaft of the right femur were ground to a thickness of 50 μm and mounted on glass slides. Images of calcein labels were captured at 100× magnification and periosteal and endosteal mineral apposition rates (Ps.MAR and Es.MAR, respectively) and mineralizing surfaces (Ps.MS/BS and Es.MS/MS) were quantified (Bioquant) for each femur.
as §3

[5] = tested on: rats; conditions: Tashjian et al. 2008; cited from earlier work
[6] = tested on: human fetal osteoblasts (hFOB); test: Serum starvation cell death in human fetal osteoblasts (trypan blue); assay type: cell-based; conditions: 100 nM for 1 hour before serum starvation for 24 hours, preliminary studies, p<0.0001
Procedure: All PTH peptides used in the current study attenuated apoptotic signaling induced by serum starvation in vitro (FIG. 19). bbPTH 1-34 reduced apoptotic signaling in pre-osteoblastic cells more than human PTH (FIG. 19). Recently, we found similar results with preliminary studies in human fetal osteoblasts (hFOB). Serum starvation for 24 hours increased cell death in hFOB (confirmed via trypan blue staining), but pretreatment of hFOB cells with 100 nM PTH 1-34 or 1-84 for 1 hour before starvation reduced percent cell death (percentage change in cell death compared to vehicle pretreatment, hPTH 1-34: −18%, bbPTH 1-34: −25%, hPTH 1-84: −17%, bbPTH 1-84: −21%; p<0.0001; data not shown). […] However, although bbPTH 1-84 was less anti-apoptotic than bbPTH 1-34 and hPTH 1-34 in vitro (FIG. 19) it caused the greatest increases in cortical and trabecular bone mass in the in vivo studies (Table 1, Table 2).

[7] = tested on: procollagen-1 mRNA; conditions: Nasu et al., 1998; cited from earlier work

Substance: human PTH 1-34 [hPTH 1-34]
- expression ratio of Bax/Bcl-2 ([1]; 3 hours, n=4, bear vs human p=0.047): increases
- expression of type I collagen compared to the vehicle control ([1]; 6 hours): did not affect
- expression of osteocalcin compared to the vehicle control ([1]; 6 hours, n=2): substantially upregulated; also recorded: upregulate
- BV/TV ([2]; 2.5 nmol/kg s.c. daily 5 days/week): 1.35 %/kg
- App. Mn. Dn ([2]; 2.5 nmol/kg s.c.): 1783 mgHA/(cm^3*kg)
- Mat. Mn. Dn. ([2]; 2.5 nmol/kg s.c.): 31281 mgHA/(cm^3*kg)
- Tb. N ([2]; 2.5 nmol/kg s.c.): 105.0 1/mm*kg
- Tb. Sp ([2]; 2.5 nmol/kg s.c.): 9.57 mm/kg
- Tb. Th ([2]; 2.5 nmol/kg s.c.): 1.05 mm/kg
- trabecular thickness (Tb.Th) or mineral apposition rates (MAR) in the proximal tibia ([3]; daily injections of 1 nmol/kg for 6 weeks): did not affect
- trabecular thickness (Tb.Th) and mineral apposition rates (MAR) in the proximal tibia ([3]; higher molar dosage (˜10 nmol/kg)): increased
- Endosteal MAR [4]: 0.56 (0.18)
- Endosteal MS/BS [4]: 39.3 (17.7)
- Periosteal MAR [4]: 0.53 (0.21)
- Periosteal MS/BS [4]: 24.0 (13.8)
- dose shown to be carcinogenic in rats [5]: 5 µg/kg
- percentage change in cell death compared to vehicle pretreatment [6]: −18%
- production of procollagen-1 mRNA [7]: down-regulates

Reference: US8987201B2, “Black bear parathyroid hormone and methods of using black bear parathyroid hormone” (Michigan Technological University, priority 2009, dated 2015)
